# Test system: Caco-2 cells
# Assay: Innate immune activation in Caco-2 cells (NLRP3, caspase-1, IL-15, NF-κB p65)
# Assay type: cell-based, human
# Description: Human colon adenocarcinoma-derived Caco-2 and T84 cells were obtained from the ATCC. Cells were maintained in T25 flask in Modified Eagle Medium (MEM) for Caco-2, or Ham's F12+DMEM (1:1) for T84, supplemented with 10% fetal bovine serum (FBS), 2 mM Glutamine+1% Non Essential Amino Acids (NEAA) and the antibiotics penicillin\streptomycin (100 units/ml) (all reagents from Lonza) (Luciani, A., et al. 2010. Cells were grown in Transwells (Corning, 3470 or 3460) under the normal condition (Luciani, A., et al. 2012). Briefly, 8×10^4 or 5×10^5 cells were seeded in 6.5-mm diameter or 12-mm diameter, respectively, and grown until the RT reached 800 to 1,200 Ω·cm2. Transwells with a pore size of 0.4 μm were used. Medium in both the apical and basolateral chambers was changed every other day. Cells were treated with 20 μg/ml of either α-gliadin peptide P31-43 or […]-69 or scrambled PGAV or modified P31-43 either biotin-tagged or not, for different time point (from 1 h short challenge up to 24 h). Cells were also treated with 50 or 100 μg/ml of […]-68 or PGAV peptides for 3 h. Caco-2 or T84 cells were also treated with: CFTR potentiators VX-770 (10 μM) or VX-532 (20 μM) (Selleck chemicals) or Genistein (10 μM) (Sigma-Aldrich) or in presence or absence of CFTR inhibitor172 (CFTRinh172, 20 μM) or 3-methyl-adenine (3-MA, 20 μM) (Calbiochem), Z-DON (20 nM, Zedira) or BAPTA-AM (10 μM, Calbiochem). The whole lysate or membrane fraction proteins of cell lines and mice intestine homogenates were obtained from treated and untreated cells or mice as described. The equal amount of protein were resolved by SDS-PAGE gel and blotted with antibodies against: SQSTM1, (Sigma Aldrich, 108k4767) 1:1000, PPARγ (Santa Cruz Biotechnology, sc7273) 1:500, BECN1 (Abcam, ab58878) 1:1000, CFTR clone M3A7 (Abcam, ab4067) 1:500, phospho-ERK1/2 (php42/44, Cell Signaling Technology, #91101) 1:1000, UVRAG (Santa Cruz Biotechnology sc8215) 1:1000, NHERF-1 (BD, 611161) 1:1000, EZRIN (BD, 610603) 1:1000, hVps34 (SigmaV9764) 1:300, biotin (Abcam, ab1227) 1:2000, PKAr2a (BD, 610625) 1:500, Ubiquitin (Cell Signaling clone P4D1, #3936) 1:1000, CHIP (Calbiochem PC711) 1:500, Caspase-1 p10 (M-20) (Santa Cruz Biotechnology, sc-514) 1:200, NLRP3 (Abcam, ab4207), 1:500, IDO1 (monoclonal; cv152) 1:1000^[80], used as primary antibodies. Normalization was performed by probing the membrane with anti-β-actin (Cell Signaling, #4970) 1:1000, anti-Gapdh (Sigma-Aldrich, G8795) 1:1000 and anti-flottilin (Abcam ab15148) 1:1000 antibodies. Immunoprecipitations of endogenous proteins were performed on 500 μg of lysates from Caco-2 cells. The proteins were incubated for 12-18 h at 4° C. with 10 ug\ml of specific antibody followed by the addition of Protein A/G-agarose beads for 4 h at 4° C. The beads were then washed three times with lysis buffer and Laemmli's sample buffer was added to the samples. The membranes were then blotted with: CFTR clone CF3 (Abcam, ab2784) 1:1000, TG2 (clone CUB7402; NeoMarkers) 1:1000, CHIP (Calbiochem PC711) 1:500, Ubiquitin (Cell Signaling clone P4D1 3936), isopeptide (Abcam 422) 1:1000, PKAR2 (BD 610625) 1:500. For cytoplasmic and nuclear extracts human colorectal carcinoma Caco-2 cells were harvested, washed in cold PBS twice, and centrifuged at 6000 rpm for 5 min in cold room to collect pellets. […] The protein concentrations were measured by Bradford protein assay (Protein Reagent, Bio-Rad). […]
Compound,effect on P31-43-induced NF-κB p65 nuclear translocation (Caco-2 cells),effect on P31-43-induced NLRP3 expression (Caco-2 cells),effect on P31-43-induced caspase-1 cleavage (Caco-2 cells),"effect on P31-43-induced production of IL-15 (Caco-2 cells, ELISA, p<0.001)",NF-κB p65 translocation into the nucleus (Caco-2 cells after incubation with peptide)
"CC(C)(C)c1cc(C(C)(C)C)c(NC(=O)c2c[nH]c3ccccc3c2=O)cc1O [VX-770, N-(2,4-di-tert-butyl-5-hydroxyphenyl)-4-oxo-1,4-dihydroquinoline-3-carboxamide]",suppressed,prevented,prevented,prevented the P31-43-induced production of IL-15,
"α-gliadin peptide LGQQQPFPPQQPY (SEQ ID 1), induces an enterocyte stress response (P31-43 sequence of alpha-gliadin)",,,,,NF-κB p65 translocation into the nucleus was observed
